Assay [1] deals with sAPPβ release, SH-SY5Y cells. In words: sAPPβ release assay. The format is cell-based. The following applies: Homo sapiens, compounds incubated 17 h. The procedure:
SH-SY5Y cells were cultured in DMEM/F-12 with Glutamax, 10% FCS and 1% non-essential amino acids and cryopreserved and stored at −140° C. at a concentration of 7.5−9.5×10^6 cells per vial. Thaw cells and seed at a conc. of around 10000 cells/well in DMEM/F-12 with Glutamax, 10% FCS and 1% non-essential amino acids to a 384-well tissue culture treated plate, […] cell susp/well. The cell plates were then incubated for 7-24 h at 37° C., 5% CO2. The cell medium was removed, followed by addition of 30 μL compound diluted in DMEM/F-12 with Glutamax, 10% FCS, 1% non-essential amino acids and 1% PeSt to a final conc. of 1% DMSO. The compounds were incubated with the cells for 17 h (overnight) at 37° C., 5% CO2. Meso Scale Discovery (MSD) plates were used for the detection of sAPPβ release. MSD sAPPβ plates were blocked in 1% BSA in Tris wash buffer (40 μL/well) for 1 h on shake at r.t. and washed 1 time in Tris wash buffer (40 μL/well). 20 μL of medium was transferred to the pre-blocked and washed is MSD sAPPβ microplates, and the cell plates were further used in an ATP assay to measure cytotoxicity. The MSD plates were incubated with shaking at r.t. for 2 h and the media discarded. 10 μL detection antibody was added (1 nM) per well followed by incubation with shaking at r.t. for 2 h and then discarded. 40 μL Read Buffer was added per well and the plates were read in a SECTOR Imager.

The target of assay [2] is T1, human β-Secretase (AA 1-AA 460), sBACE-Fc (Homo sapiens, UniProt P56817).
T1 construct: soluble part of the human β-Secretase (AA 1-AA 460) was cloned; Fc domain of IgG1; made in house
Nature of the assay: Diluted TR-FRET assay. It counts as biochemical. The following applies: footnote a: diluted FRET assay, 50 times less enzyme, 6.5 h reaction time at r.t.; read-out: IC50 in TR-FRET assay (IC50 from the diluted FRET assay). The procedure: The cDNA for the soluble part of the human β-Secretase (AA 1-AA 460) was cloned using the ASP2-Fc10-1-IRES-GFP-neoK mammalian expression vector. The gene was fused to the Fc domain of IgG1 (affinity tag) and stably cloned into HEK 293 cells.
The robotic systems Biomek FX and Velocity 11 were used for all liquid handling and the enzyme and substrate solutions were kept on ice until they were placed in the robotic system. Enzyme (9 μA) was added to the plate then 1 μA of compound in dimethylsulphoxide was added, mixed and pre-incubated for 10 minutes. Substrate (10 μA) was then added, mixed and the reaction proceeded for 15 minutes at r.t. The reaction was stopped with the addition of Stop solution (7 μl, NaAcetate, pH 9). […] The dimethylsulphoxide control, instead of test compound, defined the 100% activity level and 0% activity was defined by wells lacking enzyme (replaced with reaction buffer).
A general note: In TR-FRET formats the signal depends on donor and acceptor labels being close together.

SMILES strings stand for the structures.

What is called IC50 is the concentration that gives 50% inhibition.

T1 sequence (P56817 22-460): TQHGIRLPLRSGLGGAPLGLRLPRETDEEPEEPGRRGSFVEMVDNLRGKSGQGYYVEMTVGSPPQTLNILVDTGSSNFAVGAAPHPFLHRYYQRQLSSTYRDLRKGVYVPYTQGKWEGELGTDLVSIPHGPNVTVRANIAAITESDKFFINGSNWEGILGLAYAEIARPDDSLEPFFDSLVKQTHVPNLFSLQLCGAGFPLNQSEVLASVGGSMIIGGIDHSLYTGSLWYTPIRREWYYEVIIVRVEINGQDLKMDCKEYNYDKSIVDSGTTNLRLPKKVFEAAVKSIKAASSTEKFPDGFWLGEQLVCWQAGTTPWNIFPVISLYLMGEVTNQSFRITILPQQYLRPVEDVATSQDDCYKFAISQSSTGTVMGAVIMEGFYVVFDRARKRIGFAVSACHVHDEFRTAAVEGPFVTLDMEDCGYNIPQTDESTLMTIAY

In the case of `CC#Cc1cncc(-c2cccc(C3(c4cc(C(F)F)c(=O)n(CC)c4)N=C(N)c4c(F)cccc43)c2)c1` (centres unmarked) [Example 23, 5-(3-Amino-4-fluoro-1-(3-(5-(prop-1-ynyl)pyridin-3-yl)phenyl)-1H-isoindol-1-yl)-3-(difluoromethyl)-1-ethylpyridin-2(1H)-one], the IC50 amounted to 4 nM in assay [1] and 6 nM in assay [2].

Take `CCn1cc(C2(c3cccc(-c4cncc(F)c4)c3)N=C(N)c3c(F)cccc32)cc(C)c1=O` (centres unmarked) [Example 9, 5-(3-Amino-4-fluoro-1-(3-(5-fluoropyridin-3-yl)phenyl)-1H-isoindol-1-yl)-1-ethyl-3-methylpyridin-2(1H)-one]: the IC50 in assay [1] is 4 nM; in assay [2], 13 nM.

On to `CCn1cc(C2(c3cccc(-c4cncnc4)c3)N=C(N)c3c(F)cccc32)cc(C)c1=O` (centres unmarked) [Example 6, 5-(3-Amino-4-fluoro-1-(3-(pyrimidin-5-yl)phenyl)-1H-isoindol-1-yl)-1-ethyl-3-methylpyridin-2(1H)-one], for which the IC50 worked out at 9 nM in assay [1] and 16 nM in assay [2].

As for `CCn1cc(C2(c3cccc(-c4cncc(C#N)c4)c3)N=C(N)c3c(F)cccc32)cc(C)c1=O` (centres unmarked) [Example 8, 5-(3-(3-Amino-1-(1-ethyl-5-methyl-6-oxo-1,6-dihydropyridin-3-yl)-4-fluoro-1H-isoindol-1-yl)phenyl)nicotinonitrile], the values for the IC50 in assay [1] and in assay [2] were 2 nM and 8 nM, respectively.

Turning to `CC#Cc1cncc(-c2cccc([C@@]3(c4cc(C)c(=O)n(C)c4)N=C(N)c4c(F)cccc43)c2)c1` [Example 1, (R)-5-(3-Amino-4-fluoro-1-(3-(5-(prop-1-ynyl)pyridin-3-yl)phenyl)-1H-isoindol-1-yl)-1,3-dimethylpyridin-2(1H)-one], the IC50 in assay [1] came to 2 nM; in assay [2] it was 6 nM.

Regarding `CC#Cc1ccnc(-c2cccc([C@@]3(c4cc(C)c(=O)n(CC)c4)N=C(N)c4c(F)cccc43)c2)c1` [Example 25, (R)-5-(3-Amino-4-fluoro-1-(3-(4-(prop-1-ynyl)pyridin-2-yl)phenyl)-1H-isoindol-1-yl)-1-ethyl-3-methylpyridin-2(1H)-one], the IC50 in assay [1] was found to be 2 nM; in assay [2] it was 5 nM.

Consider `CC#Cc1cncc(-c2cc(C3(c4cc(C)c(=O)n(CC)c4)N=C(N)c4c(F)cccc43)ccn2)c1` (single isomer, unassigned) [Example 26, 5-(3-amino-4-fluoro-1-(5′-(prop-1-ynyl)-2,3′-bipyridin-4-yl)-1H-isoindol-1-yl)-1-ethyl-3-methylpyridin-2(1H)-one], for which the IC50 in assay [1] came to 0.7 nM; in assay [2], 4 nM.

The values above are taken from patent publication US20120165346A1, “Compounds and their use as BACE inhibitors” (ASTRAZENECA AB, priority 2010, published 2012).
